Assay results taken from ChEMBL document CHEMBL1136264, “Syntheses of sphingosine-1-phosphate stereoisomers and analogues and their interaction with EDG receptors” (Bioorg Med Chem Lett, 2003).
Calls of active or inactive are those of the source. The calls are words filed in the database; no cut-off is given here.

Columns and labels:
Type in all cases: cell-based
[1] = molecular target: Sphingosine 1-phosphate receptor 2 (Homo sapiens) (UniProt O95136); test: In vitro binding affinity towards Endothelial differentiation G-protein coupled receptor 5 in CHO cells using [3H]S1P as radioligand relative to SIP; Not active
Sphingosine 1-phosphate receptor 2 (Homo sapiens), sequence (O95136 whole entry): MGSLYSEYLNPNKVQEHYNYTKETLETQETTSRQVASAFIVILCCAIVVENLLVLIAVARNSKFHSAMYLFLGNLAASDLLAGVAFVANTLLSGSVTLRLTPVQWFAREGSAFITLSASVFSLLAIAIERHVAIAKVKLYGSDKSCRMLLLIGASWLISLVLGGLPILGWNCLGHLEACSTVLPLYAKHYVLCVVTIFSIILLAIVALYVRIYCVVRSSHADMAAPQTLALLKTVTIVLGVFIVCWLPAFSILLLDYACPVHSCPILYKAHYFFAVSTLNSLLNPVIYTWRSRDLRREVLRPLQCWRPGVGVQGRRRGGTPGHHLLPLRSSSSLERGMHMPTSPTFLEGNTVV

[2] = molecular target: Sphingosine 1-phosphate receptor 1 (Homo sapiens) (UniProt P21453); test: In vitro binding affinity towards Endothelial differentiation G-protein coupled receptor 1 in CHO cells using [3H]S1P as radioligand relative to SIP; Not active
Sphingosine 1-phosphate receptor 1 (Homo sapiens), sequence (P21453 whole entry): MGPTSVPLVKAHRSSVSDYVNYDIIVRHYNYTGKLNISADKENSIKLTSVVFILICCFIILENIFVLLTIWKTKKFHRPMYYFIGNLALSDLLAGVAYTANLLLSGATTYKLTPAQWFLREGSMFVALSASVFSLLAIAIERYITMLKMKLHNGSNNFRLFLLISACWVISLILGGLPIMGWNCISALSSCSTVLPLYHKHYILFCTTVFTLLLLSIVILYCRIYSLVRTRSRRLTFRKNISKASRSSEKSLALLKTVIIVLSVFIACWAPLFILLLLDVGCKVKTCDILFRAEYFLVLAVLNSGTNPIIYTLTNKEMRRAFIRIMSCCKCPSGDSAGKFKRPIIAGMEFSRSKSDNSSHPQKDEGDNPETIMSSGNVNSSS

[3] = molecular target: Sphingosine 1-phosphate receptor 3 (Homo sapiens) (UniProt Q99500); test: In vitro binding affinity towards Endothelial differentiation G-protein coupled receptor 3 in CHO cells using [3H]S1P as radioligand relative to SIP; Not active
Sphingosine 1-phosphate receptor 3 (Homo sapiens), sequence (Q99500 whole entry): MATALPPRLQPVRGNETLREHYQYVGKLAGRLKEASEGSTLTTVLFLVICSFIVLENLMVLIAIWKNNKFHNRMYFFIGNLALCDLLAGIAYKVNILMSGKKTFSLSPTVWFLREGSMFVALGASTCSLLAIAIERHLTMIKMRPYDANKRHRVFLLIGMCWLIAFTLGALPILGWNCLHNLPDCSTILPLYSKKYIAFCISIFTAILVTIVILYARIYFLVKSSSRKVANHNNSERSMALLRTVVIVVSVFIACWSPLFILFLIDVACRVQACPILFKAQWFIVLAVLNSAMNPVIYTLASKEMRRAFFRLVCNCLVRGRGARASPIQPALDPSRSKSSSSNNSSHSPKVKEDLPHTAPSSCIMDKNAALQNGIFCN

[4] = molecular target: Sphingosine 1-phosphate receptor 2 (Homo sapiens) (UniProt O95136); test: In vitro binding affinity towards Endothelial differentiation G-protein coupled receptor 5 in CHO cells using [3H]S1P as radioligand relative to SIP
[5] = molecular target: Sphingosine 1-phosphate receptor 3 (Homo sapiens) (UniProt Q99500); test: In vitro binding affinity towards Endothelial differentiation G-protein coupled receptor 3 in CHO cells using [3H]S1P as radioligand relative to SIP
[6] = molecular target: Sphingosine 1-phosphate receptor 1 (Homo sapiens) (UniProt P21453); test: In vitro binding affinity towards Endothelial differentiation G-protein coupled receptor 1 in CHO cells using [3H]S1P as radioligand relative to SIP

Row | Compound | Relative binding affinity [1] | Relative binding affinity [2] | Relative binding affinity [3] | Relative binding affinity [4] [%] | Relative binding affinity [5] [%] | Relative binding affinity [6] [%]
1 | CCCCCCCCCCCCCCC[C@H](O)[C@H](N)COP(=O)(O)O | inactive | inactive | inactive | – | – | –
2 | CCCCCCCCCCCCC/C=C/[C@@H](O)[C@@H](N)COP(=O)(OC)OC | inactive | inactive | inactive | – | – | –
3 | CCCCCCCCCCCCCCC[C@H](O)[C@@H](N)COP(=O)(O)O | – | – | – | 30 | 51 | 12
4 | CCCCCCCCCCCCCCC[C@@H](O)[C@@H](N)COP(=O)(O)O | – | – | – | 54 | 86 | 41
5 | CCCCCCCCCCCCCCCC[C@@H](N)COP(=O)(O)O | – | – | – | – | 29 | –
6 | CCCCCCCCCCCCC/C=C/[C@H](O)[C@H](N)COP(=O)(O)O | – | – | – | 41 | 20 | 7.4
7 | CCCCCCCCCCCCC/C=C/[C@H](O)[C@@H](N)COP(=O)(O)O | – | – | – | 23 | 46 | 27
